Test results published in patent US20160199434A1, “COMPOSITIONS AND METHODS FOR MODULATING DNA METHYLATION” (OHIO STATE INNOVATION FOUNDATION, priority 2013, published 2016).
“Also recorded” adds a separate entry of the source.

Key:
[1] = system: H1703 squamous cell carcinoma; assay: XTT cell survival assay, H1703 lung cancer cells; assay type: cell-based, human; details: H1703, increasing doses (FIG. 13B)
Description: (§1) FIGS. 13A-13B show XTT cell survival assays for normal lung epithelial cells (BEAS-2B) and lung cancer cells (H1703 squamous cell carcinoma and A549 adenocarcinoma) in response to increasing doses of AKB-6899.

[2] = system: DNMT-3a; assay: DNMT-3a mRNA expression by RT-PCR in PyMT tumor cells; assay type: cell-based, mouse; details: for DNMT-3a mRNA expression: PyMT tumor cells, 24 hours, compared to DMSO (FIG. 1A)
Experimental: FIGS. 1A-1E show DNA methyltransferase mRNA expression in vitro and in vivo. […] PyMT tumor cells were left untreated, were treated with DMSO, or were treated with AKB-6899 (10, 25, or 50 μM) for 24 hours. The cells were subjected to Trizol extraction to recover total RNA. cDNA was synthesized for RT-PCR of DNMT-1 and DNMT-3a mRNA expression. […] Human MDA-MB-231 tumor cells were left untreated, were treated with DMSO, or were treated with AKB-6899 (25 μM) for 24 hours. Total RNA was isolated for RT-PCR. FIG. 1C (DNMT-1), FIG. 1D (DNMT-3a), and FIG. 1E (DNMT-3b) compare the effect of AKB-6899 with the effect of 5-aza-2′deoxycytidine (5-AZA) as assessed by RT-PCR in human cervical tumors implanted in mice that were either untreated (UTX), treated with DMSO, treated with 5-AZA, or treated with AKB-6899 (17.5 mg/kg).
Because DSP is regulated by ER/PR expression, and because late-stage PyMT tumors lose ER/PR-positivity and heavily metastasize to the lymph nodes and lungs (Lin et al., 2003), the effects of AKB-6899 on more global events that regulate gene expression was evaluated. PyMT tumor cells in culture were treated with DMSO or AKB-6899. Methylation-specific PCR for CpG islands in the desmoplakin promoter were performed. […] Trypan Blue confirmed no cell death in AKB-6899 treated cells when compared to control cells. The experiment was repeated and RNA was isolated from the cells. RT-PCR was performed and the regulation of DNA methyltransferases (DNMTs) was evaluated. […] (FIG. 1A). The decrease in mRNA levels of DNMT-1 and DNMT-3a increased the mRNA level of DSP (FIG. 4A) and increased desmoplakin protein expression (FIG. 5A).

[3] = system: DNMT-3a; assay: DNMT-3a transcription in A549 lung cancer cells; assay type: cell-based, human; details: A549 cells (FIG. 10B)
Description: (§2) In FIG. 10A, AKB-6899 inhibited DNMT-1, DNMT-3a, and DNMT-3b transcription in a dose-dependent manner in human squamous cell carcinoma lung cancer cells (H1703), in vitro. The DMSO-treated DNMT mRNAs are over 1.0, meaning the level of expression is higher than the housekeeping control gene, CAP1. In FIG. 10B, AKB-6899 inhibited DNMT-3a and DNMT-3b transcription in human adenocarcinoma lung cancer cells (A549). The DMSO-treated DNMT mRNAs are under 1.0, meaning the level of expression is lower than the housekeeping control gene, CAP1.

[4] = system: human A375 melanoma cells; assay: Tumor growth of human A375 melanoma cells implanted in SCID mice; assay type: in vivo, mouse; details: 19 days after palpable tumor formation, AKB-6899 17.5 mg/kg, Docetaxel 30 mg/kg
Experimental: During treatment, tumor growth was determined. Animals were treated with one the following combinations: vehicle/vehicle, vehicle/AKB-6899 (17.5 mg/kg), Docetaxel (30 mg/kg)/vehicle, or Docetaxel/AKB-6899. 19 days after palpable tumor formation, the tumors in the mice receiving the vehicle/AKB-6899 combination had tumors that were 74% the size of control; the tumors in the mice receiving Docetaxel/vehicle combination had tumors that were 49% the size of control; and the tumors in the mice receiving the Docetaxel/AKB-6899 combination had tumors that were 13% the size of control.

[5] = system: DNMT-3b; assay: DNMT-3b transcription in H1703 lung cancer cells; assay type: cell-based, human; details: H1703 cells in vitro, dose-dependent (FIG. 10A)
Description: as §2

[6] = system: 23 different gene promoters; assay: Percent methylation of 23 gene promoters in H1703 squamous cell carcinoma; assay type: cell-based, human; details: H1703, 10 μM and 50 μM, compared to DMSO
Experimental: FIGS. 11A-11D show the percent methylation for 23 different gene promoters in two types of human lung cancer cells—FIGS. 11A and 11B are directed at H1703 squamous cell carcinoma and FIG. 11C and FIG. 11D are directed at A549 adenocarcinoma. DMSO was used as a vehicle and was used as a control. […] The Dec/PBA condition represents a combination of 5 μM Decitabine (5-aza-2′deoxycytidine (5-AZA), which is a demethylating agent) and 2 mM […] (PBA, HDAC inhibitor). In all promoters tested, and in both types of lung cancer, AKB-6899 demethylated the gene promoters such that the level of % DNA methylation following AKB-6899 treatment was below the level of % DNA methylation of the DMSO-treated control cells (DMSO).

[7] = system: c-Myc; assay: c-Myc expression (relative copy number) in human cervical tumors in animals; assay type: in vivo; details: animal models of human cervical tumors, 17.5 mg/kg (FIG. 7B)
Experimental: Animal models of human cervical tumors were untreated, treated with DMSO, treated with 5-AZA or treated with AKB-6899 (17.5 mg/kg).

[8] = system: DSP mRNA; assay: DSP mRNA expression in lungs of normal mice; assay type: in vivo, mouse; details: i.p., three weeks (FIG. 14C)
Experimental: (§3) FIGS. 14A-14C show the effects of systemic administration of AKB-6899. Mice were treated three times per week for three weeks with either i.p. AKB-6899 or i.p. DMSO. The lungs were removed and assayed to determine DNMT mRNA expression, percent CpG methylation, and fold change in mRNA. […] The data was standardized to 1.0 by the DMSO levels of the respective gene expression, (n=4 lungs per condition).

[9] = system: DNMT-3b; assay: DNMT-3b mRNA expression in lungs of normal mice after systemic administration; assay type: in vivo, mouse; details: i.p. 17.5 mg/kg three times per week for three weeks, vs DMSO
Experimental: as §3

[10] = system: DSP promoter; assay: Percent CpG methylation of DSP promoter in HeLa cells; assay type: cell-based, human; details: 5 or 25 μM, compared to DMSO and PBA (FIG. 6B)
Experimental: HeLa cervical cancer cells were left untreated, were treated with DMSO, were treated with 5-AZA, were treated with AKB-6899 (5 or 25 μM), or were treated with PBA (2 mM).

[11] = system: DSP promoter; assay: CpG methylation of DSP promoter in lungs of normal mice; assay type: in vivo, mouse; details: i.p., three weeks (FIG. 14B)
Experimental: as §3

[12] = system: A549 adenocarcinoma; assay: XTT cell survival assay, A549 lung cancer cells; assay type: cell-based, human; details: A549, increasing doses (FIG. 13B)
Description: as §1

[13] = system: DNMT-3b; assay: DNMT-3b transcription in A549 lung cancer cells; assay type: cell-based, human; details: A549 cells (FIG. 10B)
Description: as §2

O=C(O)CNC(=O)c1ncc(-c2cccc(F)c2)cc1O [AKB-6899, {[5-(3-Fluorophenyl)-3-hydroxypyridine-2-carbonyl]amino}acetic acid]
cell survival / toxicity [1]: pronounced toxicity | DNMT-3a mRNA level ([2]; PyMT tumor cells in culture, concentration not given): significant decreases; also recorded: downregulated | DNMT-3a mRNA expression ([2]; 25 μM): significantly inhibited | DNMT-3a mRNA expression ([2]; 50 μM): significantly inhibited | DNMT-3a transcription [3]: inhibited | tumor size relative to control [4]: 74% | DNMT-3b transcription [5]: inhibited | percent DNA methylation of 23 gene promoters [6]: decreased the percent of DNA methylation in a dose response fashion | c-Myc expression [7]: inhibited | DSP mRNA expression in lungs [8]: increased | DNMT-3b expression in lungs [9]: inhibited | demethylation of DSP promoter (percent CpG methylation) [10]: increase in demethylation | methylation of DSP promoter in lungs [11]: demethylated | cell survival / toxicity [12]: pronounced toxicity | DNMT-3b transcription [13]: inhibited
